Test results reported in article PMC11968843, “Sulphostin-inspired N-phosphonopiperidones as selective covalent DPP8 and DPP9 inhibitors” (Nature Communications, 2025).

How the values were obtained:
Experiment in all cases: Competitive ABPP / direct target identification with alkyne probe 9 in HEK293 cell lysates
Assay type in all cases: binding, H. sapiens
[1] = tested on: HEK293 cell lysates (proteome-wide targets of probe 9)
[2] = target: T1, HEK293 cell lysates (proteome-wide targets of probe 9) (Homo sapiens, UniProt P83731); conditions: protein RPL24
T1 construct: endogenous in cells; host or cells: HEK293 cell lysate

[3] = target: T2, HEK293 cell lysates (proteome-wide targets of probe 9) (Homo sapiens, UniProt P26641); conditions: protein EEF1G
T2 construct: endogenous in cells; host or cells: HEK293 cell lysate

[4] = target: T3, HEK293 cell lysates (proteome-wide targets of probe 9) (Homo sapiens, UniProt Q02790); conditions: protein FKBP4
T3 construct: endogenous in cells; host or cells: HEK293 cell lysate

[5] = target: T4, HEK293 cell lysates (proteome-wide targets of probe 9) (Homo sapiens, UniProt P50990); conditions: protein CCT8
T4 construct: endogenous in cells; host or cells: HEK293 cell lysate

[6] = target: T5, HEK293 cell lysates (proteome-wide targets of probe 9) (Homo sapiens, UniProt P05455); conditions: protein SSB
T5 construct: endogenous in cells; host or cells: HEK293 cell lysate

[7] = target: T6, HEK293 cell lysates (proteome-wide targets of probe 9) (Homo sapiens, UniProt O43175); conditions: protein PHGDH
T6 construct: endogenous in cells; host or cells: HEK293 cell lysate

[8] = target: T7, HEK293 cell lysates (proteome-wide targets of probe 9) (Homo sapiens, UniProt Q00839); conditions: protein HNRNPU
T7 construct: endogenous in cells; host or cells: HEK293 cell lysate

[9] = target: T8, HEK293 cell lysates (proteome-wide targets of probe 9) (Homo sapiens, UniProt P62258); conditions: protein YWHAE
T8 construct: endogenous in cells; host or cells: HEK293 cell lysate

[10] = target: T9, HEK293 cell lysates (proteome-wide targets of probe 9) (Homo sapiens, UniProt P10599); conditions: protein TXN
T9 construct: endogenous in cells; host or cells: HEK293 cell lysate

[11] = target: T10, HEK293 cell lysates (proteome-wide targets of probe 9) (Homo sapiens, UniProt P23396); conditions: protein RPS3
T10 construct: endogenous in cells; host or cells: HEK293 cell lysate

[12] = target: T11, HEK293 cell lysates (proteome-wide targets of probe 9) (Homo sapiens, UniProt P62280); conditions: protein RPS11
T11 construct: endogenous in cells; host or cells: HEK293 cell lysate

[13] = target: T12, HEK293 cell lysates (proteome-wide targets of probe 9) (Homo sapiens, UniProt P08670); conditions: protein VIM
T12 construct: endogenous in cells; host or cells: HEK293 cell lysate

[14] = target: T13, HEK293 cell lysates (proteome-wide targets of probe 9) (Homo sapiens, UniProt Q14974); conditions: protein KPNB1
T13 construct: endogenous in cells; host or cells: HEK293 cell lysate

[15] = target: T14, HEK293 cell lysates (proteome-wide targets of probe 9) (Homo sapiens, UniProt P23526); conditions: protein AHCY
T14 construct: endogenous in cells; host or cells: HEK293 cell lysate

[16] = target: T15, HEK293 cell lysates (proteome-wide targets of probe 9) (Homo sapiens, UniProt O15372); conditions: protein EIF3H
T15 construct: endogenous in cells; host or cells: HEK293 cell lysate

[17] = target: T16, HEK293 cell lysates (proteome-wide targets of probe 9) (Homo sapiens, UniProt Q86TI2); conditions: protein DPP9 (Dipeptidyl peptidase 9)
T16 construct: endogenous in cells; host or cells: HEK293 cell lysate

[18] = target: T17, HEK293 cell lysates (proteome-wide targets of probe 9) (Homo sapiens, UniProt P55060); conditions: protein CSE1L
T17 construct: endogenous in cells; host or cells: HEK293 cell lysate

[19] = target: T18, HEK293 cell lysates (proteome-wide targets of probe 9) (Homo sapiens, UniProt Q7Z5P9); conditions: protein MUC19
T18 construct: endogenous in cells; host or cells: HEK293 cell lysate

[20] = target: T19, HEK293 cell lysates (proteome-wide targets of probe 9) (Homo sapiens, UniProt O60506); conditions: protein SYNCRIP
T19 construct: endogenous in cells; host or cells: HEK293 cell lysate

[21] = target: T20, HEK293 cell lysates (proteome-wide targets of probe 9) (Homo sapiens, UniProt P62829); conditions: protein RPL23
T20 construct: endogenous in cells; host or cells: HEK293 cell lysate

[22] = target: T21, HEK293 cell lysates (proteome-wide targets of probe 9) (Homo sapiens, UniProt P62937); conditions: protein PPIA
T21 construct: endogenous in cells; host or cells: HEK293 cell lysate

[23] = target: T22, HEK293 cell lysates (proteome-wide targets of probe 9) (Homo sapiens, UniProt P37837); conditions: protein TALDO1
T22 construct: endogenous in cells; host or cells: HEK293 cell lysate

[24] = target: T23, HEK293 cell lysates (proteome-wide targets of probe 9) (Homo sapiens, UniProt Q99832); conditions: protein CCT7
T23 construct: endogenous in cells; host or cells: HEK293 cell lysate

[25] = target: T24, HEK293 cell lysates (proteome-wide targets of probe 9) (Homo sapiens, UniProt P42704); conditions: protein LRPPRC
T24 construct: endogenous in cells; host or cells: HEK293 cell lysate

[26] = target: T25, HEK293 cell lysates (proteome-wide targets of probe 9) (Homo sapiens, UniProt P14618); conditions: protein PKM
T25 construct: endogenous in cells; host or cells: HEK293 cell lysate

[27] = target: T26, HEK293 cell lysates (proteome-wide targets of probe 9) (Homo sapiens, UniProt P60866); conditions: protein RPS20
T26 construct: endogenous in cells; host or cells: HEK293 cell lysate

[28] = target: T27, HEK293 cell lysates (proteome-wide targets of probe 9) (Homo sapiens, UniProt Q01469); conditions: protein FABP5
T27 construct: endogenous in cells; host or cells: HEK293 cell lysate

[29] = target: T28, HEK293 cell lysates (proteome-wide targets of probe 9) (Homo sapiens, UniProt Q07020); conditions: protein RPL18
T28 construct: endogenous in cells; host or cells: HEK293 cell lysate

[30] = protein HIST1H1C;HIST1H1E;HIST1H1D
[31] = protein group Histone H2A type 1 (HIST1H2AG and others)

T21 sequence (P62937 whole entry): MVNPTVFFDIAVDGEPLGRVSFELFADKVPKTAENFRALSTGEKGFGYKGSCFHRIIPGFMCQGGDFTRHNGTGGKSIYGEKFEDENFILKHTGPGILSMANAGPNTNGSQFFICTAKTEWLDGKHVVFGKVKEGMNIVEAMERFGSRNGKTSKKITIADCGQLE
T9 sequence (P10599 whole entry): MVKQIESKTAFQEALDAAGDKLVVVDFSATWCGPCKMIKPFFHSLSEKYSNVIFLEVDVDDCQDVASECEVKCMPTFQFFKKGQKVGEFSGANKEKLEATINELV
T3 sequence (Q02790 whole entry): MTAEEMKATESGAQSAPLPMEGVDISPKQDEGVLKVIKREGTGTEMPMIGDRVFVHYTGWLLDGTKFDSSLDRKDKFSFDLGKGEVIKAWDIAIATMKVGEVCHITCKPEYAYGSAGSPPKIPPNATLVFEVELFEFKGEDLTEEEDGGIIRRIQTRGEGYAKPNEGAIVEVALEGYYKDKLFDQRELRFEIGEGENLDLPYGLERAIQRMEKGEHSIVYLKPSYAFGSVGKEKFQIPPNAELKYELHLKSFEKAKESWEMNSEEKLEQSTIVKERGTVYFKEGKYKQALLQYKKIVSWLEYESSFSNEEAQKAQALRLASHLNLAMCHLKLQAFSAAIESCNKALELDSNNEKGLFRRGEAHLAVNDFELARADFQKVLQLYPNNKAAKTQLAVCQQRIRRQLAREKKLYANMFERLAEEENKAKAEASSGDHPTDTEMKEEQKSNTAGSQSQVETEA
T5 sequence (P05455 whole entry): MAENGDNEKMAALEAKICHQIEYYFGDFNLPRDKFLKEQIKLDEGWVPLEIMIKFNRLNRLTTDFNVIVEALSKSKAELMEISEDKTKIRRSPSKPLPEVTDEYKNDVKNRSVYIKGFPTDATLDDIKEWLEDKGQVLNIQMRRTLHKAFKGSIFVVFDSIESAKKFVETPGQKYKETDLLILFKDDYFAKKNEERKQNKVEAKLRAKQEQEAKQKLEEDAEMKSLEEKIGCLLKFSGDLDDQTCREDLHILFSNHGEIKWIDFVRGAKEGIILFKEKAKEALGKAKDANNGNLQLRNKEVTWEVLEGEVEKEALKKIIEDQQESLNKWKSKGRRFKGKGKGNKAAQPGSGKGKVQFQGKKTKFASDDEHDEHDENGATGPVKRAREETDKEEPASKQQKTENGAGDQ
T17 sequence (P55060 whole entry): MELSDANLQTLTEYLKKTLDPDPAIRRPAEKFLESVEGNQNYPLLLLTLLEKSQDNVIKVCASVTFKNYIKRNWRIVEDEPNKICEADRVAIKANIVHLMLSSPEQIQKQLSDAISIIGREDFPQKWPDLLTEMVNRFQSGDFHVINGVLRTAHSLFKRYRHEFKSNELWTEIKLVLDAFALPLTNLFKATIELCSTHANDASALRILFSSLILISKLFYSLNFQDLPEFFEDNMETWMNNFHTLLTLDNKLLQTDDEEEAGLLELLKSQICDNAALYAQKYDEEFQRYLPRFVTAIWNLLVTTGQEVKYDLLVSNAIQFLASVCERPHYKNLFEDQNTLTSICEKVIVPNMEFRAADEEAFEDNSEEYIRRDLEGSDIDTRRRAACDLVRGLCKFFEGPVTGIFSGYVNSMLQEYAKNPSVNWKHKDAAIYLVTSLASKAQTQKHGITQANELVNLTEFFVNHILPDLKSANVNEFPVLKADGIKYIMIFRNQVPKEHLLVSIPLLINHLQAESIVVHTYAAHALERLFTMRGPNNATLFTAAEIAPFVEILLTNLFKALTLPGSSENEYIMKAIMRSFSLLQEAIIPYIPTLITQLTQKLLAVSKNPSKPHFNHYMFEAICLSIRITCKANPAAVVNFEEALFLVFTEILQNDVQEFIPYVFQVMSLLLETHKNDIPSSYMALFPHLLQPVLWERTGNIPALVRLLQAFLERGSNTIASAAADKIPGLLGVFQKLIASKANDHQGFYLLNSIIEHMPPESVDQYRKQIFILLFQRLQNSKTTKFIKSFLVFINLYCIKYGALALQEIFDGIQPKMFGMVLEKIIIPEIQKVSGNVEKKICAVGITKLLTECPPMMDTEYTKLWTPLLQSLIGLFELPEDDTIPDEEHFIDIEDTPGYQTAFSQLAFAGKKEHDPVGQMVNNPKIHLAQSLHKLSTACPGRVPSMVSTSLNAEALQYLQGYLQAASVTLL
T14 sequence (P23526 whole entry): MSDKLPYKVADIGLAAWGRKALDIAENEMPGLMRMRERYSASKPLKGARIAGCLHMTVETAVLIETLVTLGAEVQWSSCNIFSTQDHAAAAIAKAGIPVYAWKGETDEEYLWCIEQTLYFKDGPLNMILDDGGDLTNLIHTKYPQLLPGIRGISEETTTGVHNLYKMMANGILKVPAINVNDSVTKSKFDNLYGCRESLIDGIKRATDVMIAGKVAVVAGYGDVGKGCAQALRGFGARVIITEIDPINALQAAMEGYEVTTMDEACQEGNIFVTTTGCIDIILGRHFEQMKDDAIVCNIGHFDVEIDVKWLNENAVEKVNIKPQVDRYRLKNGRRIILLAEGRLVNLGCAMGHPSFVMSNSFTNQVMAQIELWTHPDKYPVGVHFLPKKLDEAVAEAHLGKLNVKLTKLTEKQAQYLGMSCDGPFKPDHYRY
T6 sequence (O43175 whole entry): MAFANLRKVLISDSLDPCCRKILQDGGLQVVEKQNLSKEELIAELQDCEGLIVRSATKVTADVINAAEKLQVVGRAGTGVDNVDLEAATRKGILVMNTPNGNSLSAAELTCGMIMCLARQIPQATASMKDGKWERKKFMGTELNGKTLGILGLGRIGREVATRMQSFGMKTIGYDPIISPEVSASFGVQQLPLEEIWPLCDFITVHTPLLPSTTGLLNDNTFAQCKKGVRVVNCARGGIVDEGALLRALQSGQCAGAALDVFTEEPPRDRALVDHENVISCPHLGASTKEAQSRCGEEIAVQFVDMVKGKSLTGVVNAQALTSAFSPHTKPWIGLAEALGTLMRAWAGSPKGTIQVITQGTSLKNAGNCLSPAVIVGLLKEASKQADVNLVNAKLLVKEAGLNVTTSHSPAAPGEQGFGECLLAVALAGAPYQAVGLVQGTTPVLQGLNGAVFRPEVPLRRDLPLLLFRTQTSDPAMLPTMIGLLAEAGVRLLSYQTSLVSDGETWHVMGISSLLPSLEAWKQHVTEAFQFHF
T22 sequence (P37837 whole entry): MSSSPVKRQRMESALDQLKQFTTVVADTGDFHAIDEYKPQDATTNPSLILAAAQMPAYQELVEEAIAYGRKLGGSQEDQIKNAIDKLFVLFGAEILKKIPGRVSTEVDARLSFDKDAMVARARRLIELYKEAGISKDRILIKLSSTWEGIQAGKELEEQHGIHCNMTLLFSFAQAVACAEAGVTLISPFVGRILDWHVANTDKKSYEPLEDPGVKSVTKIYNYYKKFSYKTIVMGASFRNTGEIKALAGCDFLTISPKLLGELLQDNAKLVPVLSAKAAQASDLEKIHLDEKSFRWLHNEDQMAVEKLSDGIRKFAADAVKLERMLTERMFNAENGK
T15 sequence (O15372 whole entry): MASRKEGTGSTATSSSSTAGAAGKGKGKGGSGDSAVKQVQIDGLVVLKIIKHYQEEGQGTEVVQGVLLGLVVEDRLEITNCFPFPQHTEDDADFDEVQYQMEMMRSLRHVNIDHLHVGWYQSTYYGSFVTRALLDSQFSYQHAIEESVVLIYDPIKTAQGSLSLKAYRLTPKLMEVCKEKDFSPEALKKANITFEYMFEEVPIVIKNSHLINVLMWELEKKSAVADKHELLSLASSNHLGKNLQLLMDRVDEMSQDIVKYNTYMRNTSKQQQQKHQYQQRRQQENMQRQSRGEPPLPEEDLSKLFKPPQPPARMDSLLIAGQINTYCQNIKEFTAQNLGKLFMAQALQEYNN
T16 sequence (Q86TI2 whole entry): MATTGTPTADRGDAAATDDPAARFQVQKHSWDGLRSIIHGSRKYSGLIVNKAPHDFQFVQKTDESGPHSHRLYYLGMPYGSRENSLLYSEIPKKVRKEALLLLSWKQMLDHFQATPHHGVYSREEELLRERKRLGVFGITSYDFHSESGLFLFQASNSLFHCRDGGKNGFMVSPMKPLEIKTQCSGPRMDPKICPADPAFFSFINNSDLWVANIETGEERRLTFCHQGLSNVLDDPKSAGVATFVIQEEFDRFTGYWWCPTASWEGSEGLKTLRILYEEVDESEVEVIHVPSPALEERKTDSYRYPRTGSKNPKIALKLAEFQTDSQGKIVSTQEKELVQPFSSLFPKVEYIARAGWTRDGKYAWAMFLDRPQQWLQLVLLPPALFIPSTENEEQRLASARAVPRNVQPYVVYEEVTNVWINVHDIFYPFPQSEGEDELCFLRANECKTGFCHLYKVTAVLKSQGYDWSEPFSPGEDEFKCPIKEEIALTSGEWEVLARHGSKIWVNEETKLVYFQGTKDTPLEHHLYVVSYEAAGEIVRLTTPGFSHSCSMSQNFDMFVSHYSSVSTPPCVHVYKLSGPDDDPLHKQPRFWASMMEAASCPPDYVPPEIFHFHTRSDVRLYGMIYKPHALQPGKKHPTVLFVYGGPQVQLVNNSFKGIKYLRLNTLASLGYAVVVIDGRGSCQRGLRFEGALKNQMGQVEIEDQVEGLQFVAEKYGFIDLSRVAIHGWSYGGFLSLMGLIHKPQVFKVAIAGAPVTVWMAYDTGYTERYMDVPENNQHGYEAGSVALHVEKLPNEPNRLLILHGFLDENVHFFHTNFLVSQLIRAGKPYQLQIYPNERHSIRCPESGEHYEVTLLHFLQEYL
T8 sequence (P62258 whole entry): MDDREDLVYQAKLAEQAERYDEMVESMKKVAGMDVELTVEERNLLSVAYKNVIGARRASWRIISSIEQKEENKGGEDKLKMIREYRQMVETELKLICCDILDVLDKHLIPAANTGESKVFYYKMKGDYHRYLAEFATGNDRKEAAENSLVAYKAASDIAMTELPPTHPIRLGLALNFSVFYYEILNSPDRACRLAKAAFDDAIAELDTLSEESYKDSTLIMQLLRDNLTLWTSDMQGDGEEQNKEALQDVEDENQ

C#CCCCP(=O)(OCC)N1CCCC(N)C1=O.O=C(O)C(F)(F)F (mixture of isomers) [Compound 9]
proteins significantly enriched by the alkyne probe ([1]; 10 µM probe, HEK293 lysates): significant enrichment of only two proteins, namely DPP9 and the off-target prolyl endopeptidase (PREP) | Log2-fold change (9/DMSO) ([1]; protein EEF1A1;EEF1A1P5;EEF1A2): 0.04533 | Log2-fold change (9/DMSO) ([1]; protein EIF5A;EIF5AL1): 1.278 | Log2-fold change (9/DMSO) [1, 30]: 0.83 | Log2-fold change (9/DMSO) ([1]; protein HNRNPH1;HNRNPH2): -0.1168 | Log2-fold change (9/DMSO) ([1]; protein ID A0A1B0GV53): -4.4932 | Log2-fold change (9/DMSO) ([1]; protein NME1;NME2): 0.34 | Log2-fold change (9/DMSO) ([1]; protein PABPC1;PABPC3): 0.8323 | Log2-fold change (9/DMSO) ([1]; protein PGAM1;PGAM2): 1.799 | Log2-fold change (9/DMSO) ([1]; protein TUBB4B;TUBB4A): 1.386 | Log2-fold change (9/DMSO) [1, 31]: -1.664 | Log2-fold change (9/DMSO) [2]: -0.3893 | Log2-fold change (9/DMSO) [3]: 0.4327 | Log2-fold change (9/DMSO) [4]: 0.6761 | Log2-fold change (9/DMSO) [5]: 0.4828 | Log2-fold change (9/DMSO) [6]: 1.078 | Log2-fold change (9/DMSO) [7]: 0.8847 | Log2-fold change (9/DMSO) [8]: -0.419 | Log2-fold change (9/DMSO) [9]: 0.2377 | Log2-fold change (9/DMSO) [10]: 1.146 | Log2-fold change (9/DMSO) [11]: 0.2732 | Log2-fold change (9/DMSO) [12]: -0.5072 | Log2-fold change (9/DMSO) [13]: 0.9336 | Log2-fold change (9/DMSO) [14]: 1.065 | Log2-fold change (9/DMSO) [15]: -0.3328 | Log2-fold change (9/DMSO) [16]: 0.7356 | Log2-fold change (9/DMSO) [17]: 5.502 | Log2-fold change (9/DMSO) [18]: 0.5768 | Log2-fold change (9/DMSO) [19]: -1.528 | Log2-fold change (9/DMSO) [20]: 0.3304 | Log2-fold change (9/DMSO) [21]: 0.1532 | Log2-fold change (9/DMSO) [22]: 1.44 | Log2-fold change (9/DMSO) [23]: 0.3993 | Log2-fold change (9/DMSO) [24]: -0.08905 | Log2-fold change (9/DMSO) [25]: 0.5243 | Log2-fold change (9/DMSO) [26]: -0.3682 | Log2-fold change (9/DMSO) [27]: 0.9458 | Log2-fold change (9/DMSO) [28]: -0.287 | Log2-fold change (9/DMSO) [29]: 1.2987

CCCCCc1ccc(SCCP(=O)(OCC)N2CCC[C@H](N)C2=O)cc1.O=C(O)C(F)(F)F (some centres unmarked) [Compound 16]
competition of labeling by probe 9 ([1]; 50 µM competitor, 10 µM 9, HEK293 lysates): solely DPP9 was competed | Log2-fold change (16/9) ([1]; protein EEF1A1;EEF1A1P5;EEF1A2): -1.204 | Log2-fold change (16/9) ([1]; protein EIF5A;EIF5AL1): -2.135 | Log2-fold change (16/9) [1, 30]: -0.04142 | Log2-fold change (16/9) ([1]; protein HNRNPH1;HNRNPH2): 0.1964 | Log2-fold change (16/9) ([1]; protein HSPA1A;HSPA1B): -0.2164 | Log2-fold change (16/9) ([1]; protein ID A0A1B0GV53): 0.5692 | Log2-fold change (16/9) ([1]; protein NME1;NME2): -0.08451 | Log2-fold change (16/9) ([1]; protein PABPC1;PABPC3): -0.421 | Log2-fold change (16/9) ([1]; protein PGAM1;PGAM2): -2.097 | Log2-fold change (16/9) ([1]; protein RPLP0;RPLP0P6): -0.5558 | Log2-fold change (16/9) ([1]; protein TUBB4B;TUBB4A): -2.026 | Log2-fold change (16/9) [1, 31]: 0.5881 | Log2-fold change (16/9) [2]: 1.34 | Log2-fold change (16/9) [3]: -0.1709 | Log2-fold change (16/9) [4]: -0.2833 | Log2-fold change (16/9) [5]: -0.5032 | Log2-fold change (16/9) [6]: -1.02 | Log2-fold change (16/9) [7]: -0.3162 | Log2-fold change (16/9) [8]: -1.015 | Log2-fold change (16/9) [9]: 0.3661 | Log2-fold change (16/9) [10]: -0.6696 | Log2-fold change (16/9) [11]: -0.6746 | Log2-fold change (16/9) [12]: 0.1367 | Log2-fold change (16/9) [13]: -0.2472 | Log2-fold change (16/9) [14]: -1.716 | Log2-fold change (16/9) [15]: -0.05498 | Log2-fold change (16/9) [16]: -0.06894 | Log2-fold change (16/9) [17]: -5.229 | Log2-fold change (16/9) [18]: 0.04384 | Log2-fold change (16/9) [19]: 0.8224 | Log2-fold change (16/9) [20]: -1.04 | Log2-fold change (16/9) [21]: -1.084 | Log2-fold change (16/9) [22]: -1.716 | Log2-fold change (16/9) [23]: 0.1822 | Log2-fold change (16/9) [24]: -1.548 | Log2-fold change (16/9) [25]: -0.09939 | Log2-fold change (16/9) [26]: 0.00104 | Log2-fold change (16/9) [27]: -0.8733 | Log2-fold change (16/9) [28]: 0.6319 | Log2-fold change (16/9) [29]: -1.003
